Results on 14 compounds are retold here after patent US20240123079A1 (Seagen Inc., priority 2021, published 2024).

This assay concerns THP1-Dual™ reporter cells. Briefly: THP1-Dual cell reporter assay (IRF-Lucia luciferase reporter). The following applies: for pEC50: Homo sapiens, THP1-Dual, free compounds, 24 h, Lucia reporter signal, read-out: EC50. The class given is cell-based, human. The essentials:
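THP1-Dual monocytic cells (~100,000/well) were exposed to compound for 24 h (ADCs 48 h). Secreted IRF-driven Lucia luciferase in the supernatant was quantified by QUANTI-Luc luminescence.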

The mark [1] stands for this setting: ADCs: drug linker conjugated to a targeted mAb, 48 h.

pEC50: −log10 of the molar value. Like-named read-outs stand apart in the source and are kept apart here.

Turning to `COc1cc(C(N)=O)cc2nc(NC(=O)C3CCC3)n(C/C=C/Cn3c(NC(=O)C4CCC4)nc4cc(C(N)=O)cc(O)c43)c12` [Compound 57], the pEC50 (in general, the EC50 on a negative log10 scale, so that one unit is a factor of ten) was under 5.00.

As to `CCn1nc(C)cc1C(=O)Nc1nc2cc(C(N)=O)cc(OC)c2n1C/C=C/Cn1c(NC(=O)c2cc(C(F)(F)F)nn2CC)nc2cc(C(N)=O)cc(OCCCNC)c21` [Compound 92], the pEC50 is 5.92. Consider `CCn1nc(C)cc1C(=O)Nc1nc2cc(C(N)=O)cc(OC)c2n1C/C=C/Cn1c(NC(=O)c2cc(C)nn2CC)nc2cc(C(N)=O)cc(OCCCN(C)C(=O)[C@H](Cc3ccccc3)NC(=O)CCN3C(=O)C=CC3=O)c21` [Compound 122], for which the EC50 (in general, the concentration giving half of the maximal effect) under setting [1] came out at 5.6 ng/mL. Consider `CCn1nc(C)cc1C(=O)Nc1nc2cc(C(=O)OC)cc(OC)c2n1C/C=C/Cn1c(NC(=O)c2cc(C)nn2CC)nc2cc(C(=O)OC)cc(OCCCN(C)C(=O)OCc3ccc(O[C@@H]4O[C@H](C(=O)O)[C@@H](O)[C@H](O)[C@H]4O)cc3NC(=O)CCNC(=O)CCN3C(=O)C=CC3=O)c21` [Compound 67], for which the “EC50 (ng/mL)” value under setting [1] was >10,000 ng/mL.

For `CCn1nc(C)cc1C(=O)Nc1nc2cc(S(N)(=O)=O)ccc2n1C/C=C/Cn1c(NC(=O)c2cc(C)nn2CC)nc2cc(C(N)=O)cc(OCCCN(C)C(=O)OC(C)(C)C)c21` [Compound 25f], the pEC50 was 7.92.

Regarding `CCc1nc(C)oc1C(=O)Nc1nc2cc(C(N)=O)cc(OCCC3CNC3)c2n1C/C=C/Cn1c(NC(=O)c2cc(C)nn2CC)nc2cc(C(N)=O)cc(OC)c21` [Compound 141, (E)-N-(7-(2-(azetidin-3-yl)ethoxy)-5-carbamoyl-1-(4-(5-carbamoyl-2-(1-ethyl-3-methyl-1H-pyrazole-5-carboxamido)-7-methoxy-1H-benzo[d]imidazol-1-yl)but-2-en-1-yl)-1H-benzo[d]imidazol-2-yl)-4-ethyl-2-methyloxazole-5-carboxamide], the negative logarithm of the EC50 (pEC50) was 6.80. Consider `CCn1nc(C)cc1C(=O)Nc1nc2cc(S(N)(=O)=O)ccc2n1C/C=C/Cn1c(NC(=O)c2cc(C)nn2CC)nc2cc(C(N)=O)cc(OCCC3CN(C(=O)CCN4C(=O)C=CC4=O)C3)c21` [Compound 144, (E)-7-(2-(1-(3-(2,5-dioxo-2,5-dihydro-1H-pyrrol-1-yl)propanoyl)azetidin-3-yl)ethoxy)-2-(1-ethyl-3-methyl-1H-pyrazole-5-carboxamido)-1-(4-(2-(1-ethyl-3-methyl-1H-pyrazole-5-carboxamido)-5-sulfamoyl-1H-benzo[d]imidazol-1-yl)but-2-en-1-yl)-1H-benzo[d]imidazole-5-carboxamide], for which, under setting [1], the “EC50 (ng/mL)” value is given as >10,000 ng/mL. Regarding `CCn1nc(C)cc1C(=O)Nc1nc2cc(C(N)=O)cc(OC)c2n1C/C=C/Cn1c(NC(=O)c2cc(C)no2)nc2cc(C(N)=O)cc(OCCCNC)c21` [Compound 82], the pEC50 is under 5.00.

As to `CCn1nc(C)cc1C(=O)Nc1nc2cc(C(N)=O)cc(OC)c2n1C/C=C/Cn1c(NC(=O)c2cc(C)nn2CC)nc2cc(C(N)=O)cc(OCCCOC3CNC3)c21` [Compound 27f], the pEC50 is 7.42.

Consider `COc1cc(C(N)=O)cc2nc(NC(=O)C3CCCC3)n(C/C=C/Cn3c(NC(=O)C4CCCC4)nc4cc(C(N)=O)cc(O)c43)c12` [Compound 56], for which the pEC50 is under 5.00. Take `CCn1nc(C)cc1C(=O)Nc1nc2cc(S(N)(=O)=O)ccc2n1C/C=C/Cn1c(NC(=O)c2cc(C)nn2CC)nc2cc(C(N)=O)cc(OCCCNC)c21` [Compound 25g]: the pEC50 was 5.80. The same measure, in the same setting: for `COc1cc(C(N)=O)cc2nc(NC(=O)c3cccnn3)n(C/C=C/Cn3c(NC(=O)c4cccnn4)nc4cc(C(N)=O)cc(O)c43)c12` [Compound 42] the value was under 5.00.

As to `CCn1nc(C)cc1C(=O)Nc1nc2cc(C(N)=O)cc(OC)c2n1C/C=C/Cn1c(NC(=O)c2cc(C)nn2CC)nc2cc(C(N)=O)cc(OCCCN(C)C(=O)[C@@H](N)[C@@H](C)OC)c21` [Compound 120], the pEC50 was 8.28. On the same count and under the same terms, then `CCn1nc(C)cc1C(=O)Nc1nc2cc(C(N)=O)cc(OC)c2n1C/C=C/Cn1c(NC(=O)c2cc(C)nn2CC)nc2cc(C(N)=O)cc(OCCCN(C)C(=O)[C@@H](N)Cc3ccc(OC)cc3)c21` [Compound 118], with 7.63.
